For experiment [1], the target named is T1, mouse Y177F-R2 with recombinant mouse R1 (Mus musculus, UniProt P07742+P11157, Y177F).
T1 sequence (P07742 1-792): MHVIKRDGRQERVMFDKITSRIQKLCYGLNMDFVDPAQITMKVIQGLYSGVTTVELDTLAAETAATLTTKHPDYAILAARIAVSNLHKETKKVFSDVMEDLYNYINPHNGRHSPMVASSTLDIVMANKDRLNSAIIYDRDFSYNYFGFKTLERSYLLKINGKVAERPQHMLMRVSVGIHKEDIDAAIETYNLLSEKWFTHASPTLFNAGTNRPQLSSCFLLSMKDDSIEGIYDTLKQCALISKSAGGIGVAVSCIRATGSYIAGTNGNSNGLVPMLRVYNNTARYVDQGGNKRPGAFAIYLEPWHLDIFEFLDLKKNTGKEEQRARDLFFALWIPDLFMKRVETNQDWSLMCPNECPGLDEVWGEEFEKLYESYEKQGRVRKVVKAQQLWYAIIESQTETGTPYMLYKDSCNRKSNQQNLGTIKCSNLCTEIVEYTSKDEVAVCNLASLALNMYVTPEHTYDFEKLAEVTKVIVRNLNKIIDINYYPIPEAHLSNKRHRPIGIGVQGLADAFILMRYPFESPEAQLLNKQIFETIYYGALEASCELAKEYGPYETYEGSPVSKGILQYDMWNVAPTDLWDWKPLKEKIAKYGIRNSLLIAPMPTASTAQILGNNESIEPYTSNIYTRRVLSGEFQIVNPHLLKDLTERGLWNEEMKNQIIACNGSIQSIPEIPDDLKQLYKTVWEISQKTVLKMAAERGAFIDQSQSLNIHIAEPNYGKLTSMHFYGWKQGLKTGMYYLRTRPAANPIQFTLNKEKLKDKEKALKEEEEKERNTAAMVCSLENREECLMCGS
T1 sequence (P11157 1-390 Y177F): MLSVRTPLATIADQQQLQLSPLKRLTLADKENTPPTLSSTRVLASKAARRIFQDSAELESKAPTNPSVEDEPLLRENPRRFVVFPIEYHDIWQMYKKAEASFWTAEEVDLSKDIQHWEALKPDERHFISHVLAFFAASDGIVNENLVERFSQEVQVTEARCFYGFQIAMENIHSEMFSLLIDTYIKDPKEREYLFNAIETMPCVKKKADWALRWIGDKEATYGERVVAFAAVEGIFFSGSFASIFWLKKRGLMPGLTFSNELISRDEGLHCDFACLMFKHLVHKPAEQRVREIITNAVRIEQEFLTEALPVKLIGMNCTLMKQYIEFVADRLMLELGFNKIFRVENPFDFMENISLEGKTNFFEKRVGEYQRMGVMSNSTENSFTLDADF
The experiment is described as follows: Inhibition of Y177F-R2-dependent RR activity. The settings on record: dATP in presence of relatively high ATP.

In the next experiment the test system is HSV type 2. The settings on record: cell culture; read-out: EC50, replication of HSV type 2; cited from earlier work.
The subject of a further experiment is HSV-1. The following applies: murine ocular model; cited from earlier work.
For the next experiment, the system named is HSV type 1. The settings on record: cited from earlier work.
The subject of the next experiment is HSV. The following applies: cited from earlier work.

Square brackets hold non-standard residues; d marks the D form. Peptide text beside a SMILES is read from it. * marks the point of attachment. Asp(3,3-(CH2)4) = N[C@H](C(=O)O)C1(C(=O)O)CCCC1; Dibenzylacetyl = O=C(C(Cc1ccccc1)Cc1ccccc1)*; Leu(γ-Me)ol = CC(C)(C)C[C@@H](CO)N*; Tle = CC(C)(C)[C@H](N)C(=O)O; NMeV = CN[C@H](C(=O)O)C(C)C; Pyrrolidide = C1CCN(*)C1

For orientation: IC50 means the concentration needed to halve the response being measured. Consider `Nc1ncnc2c1ncn2[C@H]1C[C@H](O)[C@@H](COP(=O)(O)OP(=O)(O)OP(=O)(O)O)O1` [dATP], for which the concentration for half-maximal inhibition (IC50) in experiment [1] was 20 µM.
Usually EC50 stands for the midpoint of the concentration-response curve. As for `CC(C)[C@@H](C(=O)N[C@H](C(=O)N[C@@H](CC(=O)N1CCCC1)C(=O)N[C@H](C(=O)N[C@H](CO)CC(C)(C)C)C1(C(=O)O)CCCC1)C(C)(C)C)N(C)C(=O)C(Cc1ccccc1)Cc1ccccc1` [BI-LD-1263] (Dibenzylacetyl-[NMeV][Tle]D(Pyrrolidide)[Asp(3,3-(CH2)4)]-{Leu(γ-Me)ol}), the concentration for a half-maximal effect (EC50) was 4 µM in the experiment with HSV type 2 and 3000 nM in the experiment with HSV type 1 (cell culture, read-out: EC50, replication of HSV type 1). For the same molecule, the “Severity of HSV-1-induced keratitis” value with HSV-1 is “reduces the severity”. In addition, the “Combination with acyclovir in cell culture” value in the experiment with HSV type 1 (HSV types 1 and 2) is “synergistic effect”.
On to YAGAVVNDL, for which the “Inhibition of viral growth in cell culture” value in the experiment with HSV was “did not inhibit viral growth in cell culture”.
